# From the supplement of paper PMC11061612
# Key:
# [1] = system: NCI-H1435 (Non-Small Cell Lung Carcinoma); test: combination Emax (second highest fraction inhibited in the dose matrix, 72 h); higher = more inhibition; extreme values may be limits of the assay
# Outline: (§1)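 Bliss excess equals the observed combination effect minus the expected value EA + EB − EA·EB, where EA and EB are the effects of each agent alone. Combination Emax is the second-highest inhibition within the matrix. Inhibition was scaled from CellTiter-Glo 2.0 luminescence, with 0 set by vehicle wells and 1 by blank wells, after 72 hours of two-drug dosing of cells plated in 1536-well plates.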
# A375 (Melanoma) [2] = test: as above
# Outline: as §1
# [3] = system: MRK-nu-1 (Breast Carcinoma); test: as above
# Outline: as §1
# [4] = system: OVKATE (Ovarian Carcinoma); test: as above
# Outline: as §1
# [5] = system: NTERA-2-cl-D1 (Other Solid Carcinomas); test: as above
# Outline: as §1
# [6] = system: NCI-H2023 (Non-Small Cell Lung Carcinoma); test: as above
# Outline: as §1
# [7] = system: COR-L105 (Lung Adenocarcinoma); test: as above
# Outline: as §1
# [8] = system: NCI-H2009 (Lung Adenocarcinoma); test: as above
# Outline: as §1
# MG-63 (Osteosarcoma) [9] = test: as above
# Outline: as §1
# [10] = system: SW1463 (Colorectal Carcinoma); test: as above
# Outline: as §1
# NCI-H2452 (Mesothelioma) [11] = test: as above
# Outline: as §1
# [12] = system: NCI-H835 (Other Solid Carcinomas); test: as above
# Outline: as §1
# [13] = system: KNS-62 (Squamous Cell Lung Carcinoma); test: as above
# Outline: as §1
# [14] = system: RPMI-8402 (T-Lymphoblastic Leukemia); test: as above
# Outline: as §1
# [15] = system: SBC-3 (Small Cell Lung Carcinoma); test: as above
# Outline: as §1
# [16] = system: NCI-H1648 (Lung Adenocarcinoma); test: as above
# Outline: as §1
# [17] = system: L-363 (Plasma Cell Myeloma); test: as above
# Outline: as §1
# C32 (Melanoma) [18] = test: as above
# Outline: as §1
# [19] = system: BC-1 (B-Cell Non-Hodgkin's Lymphoma); test: as above
# Outline: as §1
# [20] = system: MDA-MB-175-VII (Breast Carcinoma); test: as above
# Outline: as §1
# [21] = system: CAL-85-1 (Breast Carcinoma); test: as above
# Outline: as §1
# GCIY (Gastric Carcinoma) [22] = test: as above
# Outline: as §1
# SK-MEL-24 (Melanoma) [23] = test: as above
# Outline: as §1
# [24] = system: NCI-H1435 (Non-Small Cell Lung Carcinoma); test: Bliss excess, mean over the matrix (fraction); higher = more synergy
# Outline: as §1
# A375 (Melanoma) [25] = test: as above
# Outline: as §1
# [26] = system: MRK-nu-1 (Breast Carcinoma); test: as above
# Outline: as §1
# [27] = system: OVKATE (Ovarian Carcinoma); test: as above
# Outline: as §1
# [28] = system: NTERA-2-cl-D1 (Other Solid Carcinomas); test: as above
# Outline: as §1
# [29] = system: NCI-H2023 (Non-Small Cell Lung Carcinoma); test: as above
# Outline: as §1
# [30] = system: COR-L105 (Lung Adenocarcinoma); test: as above
# Outline: as §1
# [31] = system: NCI-H2009 (Lung Adenocarcinoma); test: as above
# Outline: as §1
# MG-63 (Osteosarcoma) [32] = test: as above
# Outline: as §1
# [33] = system: SW1463 (Colorectal Carcinoma); test: as above
# Outline: as §1
# NCI-H2452 (Mesothelioma) [34] = test: as above
# Outline: as §1
# [35] = system: NCI-H835 (Other Solid Carcinomas); test: as above
# Outline: as §1
# [36] = system: KNS-62 (Squamous Cell Lung Carcinoma); test: as above
# Outline: as §1
# [37] = system: RPMI-8402 (T-Lymphoblastic Leukemia); test: as above
# Outline: as §1
# [38] = system: SBC-3 (Small Cell Lung Carcinoma); test: as above
# Outline: as §1
# [39] = system: NCI-H1648 (Lung Adenocarcinoma); test: as above
# Outline: as §1
# [40] = system: L-363 (Plasma Cell Myeloma); test: as above
# Outline: as §1
# C32 (Melanoma) [41] = test: as above
# Outline: as §1
# [42] = system: BC-1 (B-Cell Non-Hodgkin's Lymphoma); test: as above
# Outline: as §1
# [43] = system: MDA-MB-175-VII (Breast Carcinoma); test: as above
# Outline: as §1
# [44] = system: CAL-85-1 (Breast Carcinoma); test: as above
# Outline: as §1
# GCIY (Gastric Carcinoma) [45] = test: as above
# Outline: as §1
# SK-MEL-24 (Melanoma) [46] = test: as above
# Outline: as §1
compound,measurement,setting,value
"C[C@@H](Nc1cc(F)cc(F)c1)c1cc(C(=O)N(C)C)cc2c(=O)cc(N3CCOCC3)oc12 [AZD8186] + C1CN(CCC1(C(=O)N[C@@H](CCO)C2=CC=C(C=C2)Cl)N)C3=NC=NC4=C3C=CN4 [AZD5363] (first compound max 10 µM, 7x7, partner max 10 µM)",combination Emax,[1],0.258
same,combination Emax,A375 (Melanoma) [2],0.232
same,combination Emax,[3],0.305
same,combination Emax,[4],0.252
same,combination Emax,[5],0.348
same,combination Emax,[6],0.333
same,combination Emax,[7],0.41
same,combination Emax,[8],0.26
same,combination Emax,MG-63 (Osteosarcoma) [9],0.694
same,combination Emax,[10],0.274
same,combination Emax,NCI-H2452 (Mesothelioma) [11],0.336
same,combination Emax,[12],0.525
same,combination Emax,[13],0.533
same,combination Emax,[14],0.588
same,combination Emax,[15],0.446
same,combination Emax,[16],0.707
same,combination Emax,[17],0.318
same,combination Emax,C32 (Melanoma) [18],0.436
same,combination Emax,[19],0.577
same,combination Emax,[20],0.573
same,combination Emax,[21],0.214
same,combination Emax,GCIY (Gastric Carcinoma) [22],0.743
same,combination Emax,SK-MEL-24 (Melanoma) [23],0.508
same,Bliss excess,[24],0.0283
same,Bliss excess,A375 (Melanoma) [25],0.011
same,Bliss excess,[26],-0.0418
same,Bliss excess,[27],-0.0281
same,Bliss excess,[28],-0.0573
same,Bliss excess,[29],-0.0589
same,Bliss excess,[30],0.0189
same,Bliss excess,[31],-0.034
same,Bliss excess,MG-63 (Osteosarcoma) [32],-0.0376
same,Bliss excess,[33],-0.016
same,Bliss excess,NCI-H2452 (Mesothelioma) [34],-0.0466
same,Bliss excess,[35],-0.0164
same,Bliss excess,[36],-0.0302
same,Bliss excess,[37],-0.0783
same,Bliss excess,[38],0.0272
same,Bliss excess,[39],-0.0377
same,Bliss excess,[40],-0.0138
same,Bliss excess,C32 (Melanoma) [41],-0.0235
same,Bliss excess,[42],0.0374
same,Bliss excess,[43],-0.0108
same,Bliss excess,[44],-0.0285
same,Bliss excess,GCIY (Gastric Carcinoma) [45],-0.012
same,Bliss excess,SK-MEL-24 (Melanoma) [46],-0.0455
"N#Cc1cnc(Nc2cc(NC[C@H]3CNCCO3)c(C(F)(F)F)cn2)cn1 [SRA737] + CCc1c2c(nc3ccc(O)cc13)-c1cc3c(c(=O)n1C2)COC(=O)[C@]3(O)CC [SN-38] (first compound max 10 µM, 7x7, partner max 0.3 µM)",combination Emax,[1],0.46
same,combination Emax,A375 (Melanoma) [2],0.923
same,combination Emax,[3],0.763
same,combination Emax,[4],0.138
same,combination Emax,[5],0.624
same,combination Emax,[6],0.747
same,combination Emax,[7],0.38
same,combination Emax,[8],0.768
same,combination Emax,MG-63 (Osteosarcoma) [9],0.953
same,combination Emax,[10],0.758
same,combination Emax,NCI-H2452 (Mesothelioma) [11],0.787
same,combination Emax,[12],0.402
same,combination Emax,[13],0.866
same,combination Emax,[14],1
same,combination Emax,[15],0.935
same,combination Emax,[16],0.849
same,combination Emax,[17],0.878
same,combination Emax,C32 (Melanoma) [18],0.626
same,combination Emax,[19],0.952
same,combination Emax,[20],0.63
same,combination Emax,[21],0.746
same,combination Emax,GCIY (Gastric Carcinoma) [22],0.85
same,combination Emax,SK-MEL-24 (Melanoma) [23],0.73
same,Bliss excess,[24],-0.0243
same,Bliss excess,A375 (Melanoma) [25],-0.0288
same,Bliss excess,[26],-0.128
same,Bliss excess,[27],-0.045
same,Bliss excess,[28],-0.0004
same,Bliss excess,[29],-0.0813
same,Bliss excess,[30],-0.035
same,Bliss excess,[31],0.0451
same,Bliss excess,MG-63 (Osteosarcoma) [32],-0.0251
same,Bliss excess,[33],0.0621
same,Bliss excess,NCI-H2452 (Mesothelioma) [34],0.0683
same,Bliss excess,[35],-0.0262
same,Bliss excess,[36],-0.0387
same,Bliss excess,[37],-0.0209
same,Bliss excess,[38],-0.0632
same,Bliss excess,[40],0.0599
same,Bliss excess,C32 (Melanoma) [41],-0.0762
same,Bliss excess,[42],-0.0242
same,Bliss excess,[43],-0.0418
same,Bliss excess,[44],-0.0479
same,Bliss excess,GCIY (Gastric Carcinoma) [45],-0.0331
same,Bliss excess,SK-MEL-24 (Melanoma) [46],-0.0221
